Bridge positions count the residues as written; N and C are the ends. Square brackets hold non-standard residues; d marks the D form. Peptide text beside a SMILES is read from it. * marks the point of attachment. X13 = N#Cc1ccc(-c2cc(C(=O)*)ccc2F)cc1; X17 = N#Cc1ccc(-c2cccc(C(=O)*)c2)cc1; X19 = N#Cc1ccc(-c2cccc(C(=O)*)c2)nc1; X2 = N#Cc1ccc(-c2cc(C(=O)*)ccn2)cc1F; X22 = COc1cccc(-c2cc(C(=O)*)ccn2)c1; X25 = O=C(c1ccc(Cl)c(-c2ccccn2)c1)*; X37 = COc1cc(C(=O)*)cc(-c2ccccc2)n1; X24 = COc1ccc(-c2ccccc2)cc1C(=O)*; X16 = O=C(c1ccc(-c2ccccc2)nc1)*; X27 = O=C(c1cncc(-c2ccccc2)c1)*; X8 = O=C(c1cc(-c2ccccc2)ccc1F)*; Dab = NCC[C@H](N)C(=O)O; Dap = NC[C@H](N)C(=O)O
Key:
[1] = system: PA-1646, polymyxin-resistant clinical isolate of Pseudomonas aeruginosa; format: cell-based; settings: PA-1646, polymyxin-resistant clinical isolate of
How it was run: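 Broth dilution MIC and bactericidal (MBC) testing per CLSI methods (M7-A8, M100-S20, M26-A) against polymyxin-resistant clinical P. aeruginosa isolate PA-1646. Compounds tested as trifluoroacetate salts, one as sulfate salt; values in mg/L.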

[2] = system: AB-1649, polymyxin-resistant clinical isolate of Acinetobacter baumannii; format: cell-based; settings: AB-1649, polymyxin-resistant clinical isolate of
How it was run: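 Broth dilution MIC per CLSI against the polymyxin-resistant A. baumannii isolate, 2-fold dilutions, overnight incubation, visual read of lowest concentration inhibiting growth. Run in duplicate, lower value reported when within 2-fold; MBC per CLSI M26-A guideline.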

[3] = system: AB-3167, clinical isolate of Acinetobacter baumannii; format: cell-based; settings: AB-3167, clinical isolate of
How it was run: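 Broth dilution MIC per CLSI (M7-A8, M100-S20, M26-A for bactericidal), 2-fold dilution series, overnight incubation, visual read of lowest concentration inhibiting growth versus drug-free control. Duplicates run; lower value reported if within 2-fold, otherwise repeated. Compounds tested as trifluoroacetate salts; QC strains and reference compounds required in range.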

[4] = system: PA-1646, polymyxin-resistant clinical isolate of Pseudomonas aeruginosa; format: cell-based; settings: PA-1646, polymyxin-resistant clinical isolate of; remark: listed apart in the source
How it was run: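 Broth dilution MIC per CLSI with 2-fold concentration steps, read visually after overnight incubation as lowest concentration inhibiting growth; duplicates within 2-fold, lower value reported, with QC strains and reference compounds. Compounds tested as trifluoroacetate salts, polymyxin B as sulfate.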

[5] = system: Pseudomonas aeruginosa strain PA01; format: cell-based; settings: strain
How it was run: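 CLSI broth dilution against P. aeruginosa PA01 with two-fold concentration steps and overnight incubation; MIC is lowest concentration visibly inhibiting growth versus drug-free control, in mg/L. Compounds tested as trifluoroacetate salts, in duplicate, lower value reported if within 2-fold; control organisms and reference compounds included.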

[6] = system: AB-1649, polymyxin-resistant clinical isolate of Acinetobacter baumannii; format: cell-based; settings: AB-1649, polymyxin-resistant clinical isolate of; remark: listed apart in the source
How it was run: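 MIC and MBC were measured by CLSI broth dilution methods (M7-A8, M100-S20, M26-A) against a polymyxin-resistant clinical isolate and reported in mg/L. Compounds were tested as trifluoroacetate salts, with one exception tested as the sulfate.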

[7] = system: EC-1, mouse virulent strain of Escherichia coli; format: cell-based; settings: E. coli EC-1; overnight incubation, lower of duplicate values; trifluoroacetate salt (Example 1 and PMB sulfate)
How it was run: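 Compounds were tested mostly as trifluoroacetate salts. Duplicate CLSI broth-dilution MICs were read visually after overnight incubation over 2-fold dilutions, with the lower of duplicates within 2-fold taken. QC organisms and reference drugs were included in each run.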

[8] = Cytotoxicity assay (LDH release), hRPTEC; format: cell-based, human; settings: human
How it was run: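 hRPTEC grown 72 h in REGM, then exposed to compounds at 100, 67, 44, 30, 20 and 13 micromolar for 24 h at 37° C, 5% CO2. LDH released into supernatant measured; TC50 (micromolar) derived. Compounds tested as trifluoroacetate salts unless otherwise noted.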

Row | Structure (SMILES) | PA-1646 MBC [1] [µg/mL] | AB-1649 MIC [2] [µg/mL] | AB-3167 MIC [3] [µg/mL] | PA-1646 MIC [4] [µg/mL] | PA01 MIC [5] [µg/mL] | AB-1649 MBC [6] [µg/mL] | EC-1 MIC [7] [µg/mL] | CC50 at 24 h [8] [µM]
1 | CC(C)C[C@@H]1NC(=O)[C@@H](Cc2ccccc2)NC(=O)[C@H](CCN)NC(=O)[C@@H](NC(=O)[C@H](CN)NC(=O)[C@@H](NC(=O)[C@H](CCN)NC(=O)c2cccc(-c3ccc(C#N)cn3)c2)[C@@H](C)O)CCNC(=O)[C@H]([C@@H](C)O)NC(=O)[C@H](CCN)NC(=O)[C@H](CCN)NC1=O [Example 26] (X19-[Dab]T[Dap][Dab][Dab][dF]L[Dab][Dab]T; lactam 4-C) | 8 | 4 | 1 | 4 | 1 | 4 | 0.25 | 77
2 | CC(C)C[C@@H]1NC(=O)[C@@H](Cc2ccccc2)NC(=O)[C@H](CCN)NC(=O)[C@@H](NC(=O)[C@H](CN)NC(=O)[C@@H](NC(=O)[C@H](CCN)NC(=O)c2ccc(-c3ccccc3)nc2)[C@@H](C)O)CCNC(=O)[C@H]([C@@H](C)O)NC(=O)[C@H](CCN)NC(=O)[C@H](CCN)NC1=O [Example 27] (X16-[Dab]T[Dap][Dab][Dab][dF]L[Dab][Dab]T; lactam 4-C) | 4 | 4 | 0.25 | 2 | 0.5 | 4 | 0.125 | 73
3 | CC(C)C[C@@H]1NC(=O)[C@@H](Cc2ccccc2)NC(=O)[C@H](CCN)NC(=O)[C@@H](NC(=O)[C@H](CN)NC(=O)[C@@H](NC(=O)[C@H](CCN)NC(=O)c2ccc(Cl)c(-c3ccccn3)c2)[C@@H](C)O)CCNC(=O)[C@H]([C@@H](C)O)NC(=O)[C@H](CCN)NC(=O)[C@H](CCN)NC1=O [Example 28] (X25-[Dab]T[Dap][Dab][Dab][dF]L[Dab][Dab]T; lactam 4-C) | 16 | 4 | 0.25 | 4 | 1 | 4 | 0.25 | 72
4 | COc1cccc(-c2cc(C(=O)N[C@@H](CCN)C(=O)N[C@H](C(=O)N[C@@H](CN)C(=O)N[C@H]3CCNC(=O)[C@H]([C@@H](C)O)NC(=O)[C@H](CCN)NC(=O)[C@H](CCN)NC(=O)[C@H](CC(C)C)NC(=O)[C@@H](Cc4ccccc4)NC(=O)[C@H](CCN)NC3=O)[C@@H](C)O)ccn2)c1 [Example 29] (X22-[Dab]T[Dap][Dab][Dab][dF]L[Dab][Dab]T; lactam 4-C) | 32 | 4 | 0.5 | 4 | 1 | 4 | 0.5 | 70
5 | CC(C)C[C@@H]1NC(=O)[C@@H](Cc2ccccc2)NC(=O)[C@H](CCN)NC(=O)[C@@H](NC(=O)[C@H](CN)NC(=O)[C@@H](NC(=O)[C@H](CCN)NC(=O)c2cncc(-c3ccccc3)c2)[C@@H](C)O)CCNC(=O)[C@H]([C@@H](C)O)NC(=O)[C@H](CCN)NC(=O)[C@H](CCN)NC1=O [Example 30] (X27-[Dab]T[Dap][Dab][Dab][dF]L[Dab][Dab]T; lactam 4-C) | 4 | 4 | 0.25 | 2 | 0.5 | 4 | 0.125 | 56
6 | CC(C)C[C@@H]1NC(=O)[C@@H](Cc2ccccc2)NC(=O)[C@H](CCN)NC(=O)[C@@H](NC(=O)[C@H](CN)NC(=O)[C@@H](NC(=O)[C@H](CCN)NC(=O)c2ccnc(-c3ccc(C#N)c(F)c3)c2)[C@@H](C)O)CCNC(=O)[C@H]([C@@H](C)O)NC(=O)[C@H](CCN)NC(=O)[C@H](CCN)NC1=O [Example 31] (X2-[Dab]T[Dap][Dab][Dab][dF]L[Dab][Dab]T; lactam 4-C) | 8 | 4 | 0.5 | 4 | 1 | 16 | 0.5 | 55
7 | CC(C)C[C@@H]1NC(=O)[C@@H](Cc2ccccc2)NC(=O)[C@H](CCN)NC(=O)[C@@H](NC(=O)[C@H](CN)NC(=O)[C@@H](NC(=O)[C@H](CCN)NC(=O)c2cccc(-c3ccc(C#N)cc3)c2)[C@@H](C)O)CCNC(=O)[C@H]([C@@H](C)O)NC(=O)[C@H](CCN)NC(=O)[C@H](CCN)NC1=O [Example 32] (X17-[Dab]T[Dap][Dab][Dab][dF]L[Dab][Dab]T; lactam 4-C) | 4 | 4 | 0.5 | 2 | 0.5 | 4 | 0.25 | 33
8 | CC(C)C[C@@H]1NC(=O)[C@@H](Cc2ccccc2)NC(=O)[C@H](CCN)NC(=O)[C@@H](NC(=O)[C@H](CN)NC(=O)[C@@H](NC(=O)[C@H](CCN)NC(=O)c2ccc(F)c(-c3ccc(C#N)cc3)c2)[C@@H](C)O)CCNC(=O)[C@H]([C@@H](C)O)NC(=O)[C@H](CCN)NC(=O)[C@H](CCN)NC1=O [Example 33] (X13-[Dab]T[Dap][Dab][Dab][dF]L[Dab][Dab]T; lactam 4-C) | 8 | 4 | 1 | 2 | 2 | 4 | 0.5 | 30
9 | CC(C)C[C@@H]1NC(=O)[C@@H](Cc2ccccc2)NC(=O)[C@H](CCN)NC(=O)[C@@H](NC(=O)[C@H](CN)NC(=O)[C@@H](NC(=O)[C@H](CCN)NC(=O)c2cc(-c3ccccc3)ccc2F)[C@@H](C)O)CCNC(=O)[C@H]([C@@H](C)O)NC(=O)[C@H](CCN)NC(=O)[C@H](CCN)NC1=O [Example 34] (X8-[Dab]T[Dap][Dab][Dab][dF]L[Dab][Dab]T; lactam 4-C) | 8 | 16 | 0.25 | 2 | 0.5 | 16 | 0.125 | 28
10 | COc1cc(C(=O)N[C@@H](CCN)C(=O)N[C@H](C(=O)N[C@@H](CN)C(=O)N[C@H]2CCNC(=O)[C@H]([C@@H](C)O)NC(=O)[C@H](CCN)NC(=O)[C@H](CCN)NC(=O)[C@H](CC(C)C)NC(=O)[C@@H](Cc3ccccc3)NC(=O)[C@H](CCN)NC2=O)[C@@H](C)O)cc(-c2ccccc2)n1 [Example 35] (X37-[Dab]T[Dap][Dab][Dab][dF]L[Dab][Dab]T; lactam 4-C) | 1 | 4 | 0.5 | 1 | 0.5 | 4 | 0.25 | 24
11 | COc1ccc(-c2ccccc2)cc1C(=O)N[C@@H](CCN)C(=O)N[C@H](C(=O)N[C@@H](CN)C(=O)N[C@H]1CCNC(=O)[C@H]([C@@H](C)O)NC(=O)[C@H](CCN)NC(=O)[C@H](CCN)NC(=O)[C@H](CC(C)C)NC(=O)[C@@H](Cc2ccccc2)NC(=O)[C@H](CCN)NC1=O)[C@@H](C)O [Example 36] (X24-[Dab]T[Dap][Dab][Dab][dF]L[Dab][Dab]T; lactam 4-C) | 2 | 4 | 0.25 | 2 | 0.5 | 4 | 0.5 | 19
